How the values were obtained:
[1] = test system: Sonic Hedgehog signaling; assay: Matrigel plug with cyclopamine, CD31 / SM α-actin immunostaining; type: in vivo, mice; details: FGF-2+FGF-9 plugs with 500 nM cyclopamine
Method: FIG. 15A. RT-PCR of human aortic SMCs stimulated with increasing concentrations of recombinant FGF-9 for 24 h. 15B, RT-PCR of human aortic SMCs overexpressing cDNA encoding GFP or FGF-9. 15C, Western Blots of C57/Bl6 dermal fibroblasts pretreated with either DMSO or 500 nM cyclopamine and subsequently stimulated with vehicle or FGF-9 for 24 hr. 15D. Photomicrographs of FGF-2 and FGF-9 containing matrigel plugs with either DMSO or cyclopamine double immunolabeled for CD31 (brown) and sm α-actin (red). E Quantitation of SM α-actin coverage of CD31-positive vessels representative of 6 mice bearing FGF-2 or FGF-2+FGF-9 with either vehicle or 500 nM cyclopamine (79±4 vs 38±4.8, p<0.05).

[2] = test system: CD31-positive endothelial cell-lined microvessels; assay: Subcutaneous matrigel plug angiogenesis, CD31 immunostaining; type: in vivo, C57/Bl6 mice
Method: Matrigel plugs were mixed with either 500 ng/mL FGF-9, 500 ng/mL FGF-2 or 500 ng/mL FGF-2 and 200 ng/mL FGF-9 and subcutaneously injected into 3 month old C57/Bl6 mice. Mice were sacrificed and matrigel plugs were harvested 8 days after implantation and immunostained for CD31 (brown), to identify endothelial cell-lined microvessels.
CD31-positive microvessels immunostained in FIGS. 5B and 5C are quantified.

[3] = test system: SM α-actin positive cells on CD31 nascent blood vessels; assay: Matrigel plug, SM α-actin coverage of CD31-positive vessels in 200 μm sections; type: in vivo, mice; details: 200 μm thick sections, 8 days after implantation
Source text: Photomicrographs of Matrigel plugs harvested 8 days after implantation, cut into 200 μm thick-sections and immunostained for CD31 (left panel) and SM α-actin (central panel) and quantitation of SM α-actin coverage of CD31-positive vessels.

[4] = test system: microvessels in matrigel plug; assay: Intravital vasoreactivity of matrigel plug microvessels; type: in vivo, mice; details: 14 days after matrigel injection
Method: 14 days after matrigel injection mice were anesthetized, the skin overlying a matrigel was surgically removed and a catheter to deliver drugs was sutured in the region of the plug. FITC-labeled dextran was injected via tail vein and the diameter of vessels in the matrigel plug was visualized using an inverted fluorescent microscope. Doses of vasoconstrictors indicated in FIG. 9 were applied and images of vessels were acquired over 5 minutes.
In separate experiments, doses of the vasoconstrictor PE followed by the vasodilator were applied to the blood vessels in matrigel plugs.

[5] = test system: SM α-actin expressing mural cells at nascent microvessels; assay: Matrigel plug, CD31 / SM α-actin immunostaining of 8 μm sections; type: in vivo, C57/Bl6 mice; details: 8 days after implantation
Source text: Photomicrographs of 8 μm-thick sections of Matrigel plugs harvested 8 days after implantation into C57/Bl6 mice and immunostained for CD31 (brown) and smooth muscle α-actin (red) and quantification of the percentage of microvessels supported by smooth muscle (SM) α-actin positive cells.

Row | Compound | SM α-actin coverage of CD31-positive vessels [1] | area of CD31-positive microvessels ([2]; matrigel plugs, 8 days after implantation) | angiogenesis, CD31 immunoreactivity inside the matrigel ([2]; plugs with 500 ng/mL FGF-9, 500 ng/mL FGF-2 or 500 ng/mL FGF-2 and 200 ng/mL FGF-9, harvested 8 days after implantation) | SM α-actin positive cell coverage of CD31 nascent blood vessels [3] | constriction of microvessels in response to phenylephrine (PE) and KCl [4] | percentage of microvessels supported by smooth muscle (SM) α-actin positive cells [5]
1 | CC1=C2C[C@H]3[C@@H](CC=C4C[C@@H](O)CC[C@@]43C)[C@@H]2CC[C@]12O[C@@H]1C[C@H](C)CN[C@H]1[C@H]2C [cyclopamine] | 38±4.8 | – | – | – | – | –
2 | FGF-2: fibroblast growth factor 2, angiogenic polypeptide used as comparator and co-factor | – | equivalent levels of angiogenesis | induce angiogenesis | 7.2±1.8% | mild if any response | 37±5.4%
